IC50 data for 29 molecules are collected here from the supplement of paper PMC7695840.

Experiment [1] relates to Staphylococcus aureus MW2 (mecA+). Description: IC50 (growth, competition assay). Particulars: cefoxitin: subinhibitory. A digest of the protocol:
(§1)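 Pre-induced, 1:1-mixed fluorescent S. aureus MW2 mecA+ and ΔmecA strains were grown 20 h at 37 °C, 90% humidity, unshaken, in LB with a daily-set subinhibitory cefoxitin dose, in 1536-well plates. Compounds were given on five- or nine-point 2-fold gradients, in two dye-swapped replicates. DsRed (540/590) and GFP (485/520) were scaled per plate between single-strain control medians, with No Treatment then set to 0.5. Per-strain IC50 was the dose halving the No Treatment signal, or the maximal signal.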

The test system of experiment [2] is Staphylococcus aureus MW2 delta-mecA (mecA-). Description: IC50 (growth, competition assay). Conditions: cefoxitin: subinhibitory. A digest of the protocol: as §1

Several values for one entry are separate records, joined by “and”; a condition that tells them apart may be missing. Equal values may be shown once. Where a name gives a salt, the structure may show the parent alone. Bounds are passed on as bounds.

Regarding `COc1ccc2c(c[n+](C)c3c4cc5c(cc4ccc23)OCO5)c1OC` [Chelerythrine chloride], the IC50 – broadly, the point on the concentration scale where inhibition reaches its midpoint – in experiment [1] (fluorescent label: DsRed) is 36.7 µM; in experiment [1] (fluorescent label: GFP), 49.2 µM; in experiment [2] (fluorescent label: DsRed), 15 µM; in experiment [2] (fluorescent label: GFP) it was below 9.85 µM.
With `N=C(N)c1ccc(OCCCCCOc2ccc(C(=N)N)cc2)cc1` [NEBUPENT], the IC50 in experiment [1] (fluorescent label: DsRed) came to 16.2 µM; in experiment [1] (fluorescent label: GFP), 23.6 µM; in experiment [2] (fluorescent label: DsRed) it was 14.5 µM; in experiment [2] (fluorescent label: GFP), 13.7 µM.
Regarding `CCCCCCCCNC(C)C(O)c1ccc(SC(C)C)cc1` (stereo unspecified) [SULOCTIDIL], the IC50 in experiment [1] (fluorescent label: DsRed) is 29.6 µM; in experiment [1] (fluorescent label: GFP), 27.5 µM; in experiment [2] (fluorescent label: DsRed) it was 17.3 µM; in experiment [2] (fluorescent label: GFP) it was 24.4 µM.
On to `COc1cc(Cc2cnc(N)nc2N)cc(OC)c1OC` [Trimethoprim], for which the IC50 was 12.4 µM and < 9.85 µM in experiment [1] (fluorescent label: DsRed); 14.6 µM and 14.2 µM in experiment [1] (fluorescent label: GFP); below 9.85 µM in experiment [2] (fluorescent label: DsRed); below 9.85 µM in experiment [2] (fluorescent label: GFP).
On to `C[C@@H](O)[C@H]1C(=O)N2C(C(=O)O)=C(S[C@@H]3CN[C@H](C(=O)N(C)C)C3)[C@H](C)[C@H]12` [MERREM], for which the IC50 in experiment [1] (fluorescent label: DsRed) is 89.8 µM; in experiment [1] (fluorescent label: GFP), 98.4 µM; in experiment [2] (fluorescent label: DsRed), 16 µM; in experiment [2] (fluorescent label: GFP), 11.8 µM.
As to `C[C@@H](Oc1cc(-c2cnn(C3CCNCC3)c2)cnc1N)c1c(Cl)ccc(F)c1Cl`, the 50% inhibitory concentration (IC50) worked out at 101 µM in experiment [1] (fluorescent label: DsRed), 108 µM in experiment [1] (fluorescent label: GFP), 20.9 µM in experiment [2] (fluorescent label: DsRed) and 17 µM in experiment [2] (fluorescent label: GFP).
On to `Cc1cc(O)c(C(=O)N[C@@H](C(=O)N[C@@H]2C(=O)N3C(C(=O)O)=C(CSc4nnnn4C)CS[C@H]23)c2ccc(O)cc2)cn1` [CEFPIRAN], for which the IC50 in experiment [1] (fluorescent label: DsRed), in experiment [1] (fluorescent label: GFP), in experiment [2] (fluorescent label: DsRed) and in experiment [2] (fluorescent label: GFP) was below 9.85 µM each time.
`COc1cc(Cc2cnc(N)nc2N)cc(OC)c1OC` [TRIMPEX]: the half-maximal inhibitory concentration (IC50) in experiment [1] (fluorescent label: DsRed), in experiment [1] (fluorescent label: GFP), in experiment [2] (fluorescent label: DsRed) and in experiment [2] (fluorescent label: GFP) was below 9.85 µM each time.
Turning to `Oc1c(Cl)cc(Cl)cc1Sc1cc(Cl)cc(Cl)c1O` [LOROTHIDOL], the IC50 in experiment [1] (fluorescent label: DsRed), in experiment [1] (fluorescent label: GFP), in experiment [2] (fluorescent label: DsRed) and in experiment [2] (fluorescent label: GFP) was below 9.85 µM throughout.
As for `CSc1ccc2c(c1)N(CCC1CCCCN1C)c1ccccc1S2` (stereo unspecified) [Thioridazine hydrochloride], the IC50 in experiment [1] (fluorescent label: DsRed) was 57.7 µM; in experiment [1] (fluorescent label: GFP), 50.3 µM; in experiment [2] (fluorescent label: DsRed) it was below 9.85 µM; in experiment [2] (fluorescent label: GFP) it was 14.8 µM.
Regarding `O=C1[C@H](CC[C@H](O)c2ccc(F)cc2)[C@@H](c2ccc(O)cc2)N1c1ccc(F)cc1` [Ezetimibe (Zetia)], the IC50 in experiment [1] (fluorescent label: DsRed) was 80.3 µM; in experiment [1] (fluorescent label: GFP), 108 µM; in experiment [2] (fluorescent label: DsRed), 24.9 µM; in experiment [2] (fluorescent label: GFP), 14.9 µM.
As for `CSc1nc2cc(Cl)c(Oc3cccc(Cl)c3Cl)cc2[nH]1` [TRICLABENDAZOLE], the IC50 in experiment [1] (fluorescent label: DsRed) is 14.4 µM; in experiment [1] (fluorescent label: GFP), 13.9 µM; in experiment [2] (fluorescent label: DsRed) it was below 9.85 µM; in experiment [2] (fluorescent label: GFP), below 9.85 µM.
For `CC(C)(C)C#Cc1cc(N(C(=O)[C@H]2CC[C@H](C)CC2)[C@H]2CC[C@H](O)CC2)c(C(=O)O)s1` [VX-222], the 50% inhibitory concentration (IC50) was determined as 25.7 µM in experiment [1] (fluorescent label: DsRed), 53.7 µM in experiment [1] (fluorescent label: GFP), 16.8 µM in experiment [2] (fluorescent label: DsRed) and 17.4 µM in experiment [2] (fluorescent label: GFP).
On to `O=C(O)Cc1cccc(OCCCN(Cc2cccc(C(F)(F)F)c2Cl)CC(c2ccccc2)c2ccccc2)c1` [GW3965 HCl], for which the IC50 in experiment [1] (fluorescent label: DsRed), in experiment [1] (fluorescent label: GFP), in experiment [2] (fluorescent label: DsRed) and in experiment [2] (fluorescent label: GFP) was below 9.85 µM throughout.
Turning to `Cc1cc(NC2CCCCC2)nc(-n2nc(C)cc2C)n1` [CyPPA], the IC50 was 40 µM in experiment [1] (fluorescent label: DsRed), 107 µM in experiment [1] (fluorescent label: GFP), 18.6 µM in experiment [2] (fluorescent label: DsRed) and 16.9 µM in experiment [2] (fluorescent label: GFP).
As for `COc1ccc(CCN2CCC(Nc3nc4ccccc4n3Cc3ccc(F)cc3)CC2)cc1` [HISMANAL], the IC50 was found to be 80.2 µM in experiment [1] (fluorescent label: DsRed), 106 µM in experiment [1] (fluorescent label: GFP), 45.1 µM in experiment [2] (fluorescent label: DsRed) and 20.2 µM in experiment [2] (fluorescent label: GFP).
Regarding `C[C@@H]1CCO[C@H]2Cn3cc(C(=O)NCc4ccc(F)cc4F)c(=O)c(O)c3C(=O)N12`, the IC50 in experiment [1] (fluorescent label: DsRed) was above 150 µM; in experiment [1] (fluorescent label: GFP), above 150 µM; in experiment [2] (fluorescent label: DsRed), 109 µM; in experiment [2] (fluorescent label: GFP), 59 µM.
As for `CCCCCCCCCc1ccc(OCCOCCOCCOCCOCCOCCOCCOCCOCCO)cc1` [CONCEPTROL], the IC50 in experiment [1] (fluorescent label: DsRed) was 32 µM; in experiment [1] (fluorescent label: GFP) it was 37 µM; in experiment [2] (fluorescent label: DsRed), 12.8 µM; in experiment [2] (fluorescent label: GFP) it was below 9.85 µM.
The corresponding values for `CC(C)(O)CC(=O)NCCn1ccc2ncnc(Nc3ccc(Oc4cccc(C(F)(F)F)c4)c(Cl)c3)c21` [TAK-285] are 26.6 µM, 28.3 µM, below 9.85 µM and below 9.85 µM.
Take `C=CC(C1=CC(=O)C(OC)=CC1=O)c1ccccc1` (stereo unspecified) [4-METHOXYDALBERGIONE]: the IC50 in experiment [1] (fluorescent label: DsRed) is 59.4 µM; in experiment [1] (fluorescent label: GFP), 63.4 µM; in experiment [2] (fluorescent label: DsRed), below 9.85 µM; in experiment [2] (fluorescent label: GFP) it was 13.3 µM.
In the case of `N[C@@H](C(=O)N[C@@H]1C(=O)N2C(C(=O)O)=C(Cl)CS[C@H]12)c1ccccc1` [CECLOR], the IC50 in experiment [1] (fluorescent label: DsRed) is 87.9 µM; in experiment [1] (fluorescent label: GFP) it was 87.8 µM; in experiment [2] (fluorescent label: DsRed), below 9.85 µM; in experiment [2] (fluorescent label: GFP), below 9.85 µM.
As to `O=C1NC(=O)/C(=C/c2ccc(-c3ccc(F)cc3O)o2)S1`, the IC50 in experiment [1] (fluorescent label: DsRed) is below 9.85 µM; in experiment [1] (fluorescent label: GFP) it was < 9.85 µM and 13.8 µM; in experiment [2] (fluorescent label: DsRed) it was below 9.85 µM; in experiment [2] (fluorescent label: GFP), below 9.85 µM.
For `CC[C@H]1OC(=O)[C@H](C)[C@@H](O[C@H]2C[C@@](C)(OC)[C@@H](O)[C@H](C)O2)[C@H](C)[C@@H](O[C@@H]2O[C@H](C)C[C@H](N(C)C)[C@H]2O)[C@](C)(O)C[C@@H](C)C(=O)[C@H](C)[C@@H](O)[C@]1(C)O` [Erythromycin (E-Mycin)], the IC50 is 1.42 µM in experiment [1] (fluorescent label: DsRed), 1.62 µM in experiment [1] (fluorescent label: GFP), below 0.498 µM in experiment [2] (fluorescent label: DsRed) and below 0.498 µM in experiment [2] (fluorescent label: GFP).
As for `CC(=O)OCC(=O)[C@H]1CC[C@H]2[C@@H]3CCC4=CC(=O)CC[C@]4(C)[C@H]3CC[C@]12C` [PERCOTEN], the IC50 is 144 µM in experiment [1] (fluorescent label: DsRed), 62.6 µM in experiment [1] (fluorescent label: GFP), 26.6 µM in experiment [2] (fluorescent label: DsRed) and above 150 µM in experiment [2] (fluorescent label: GFP).
The like results for `O=S(=O)(O)c1cc(I)c(O)c2ncccc12` [YATREN] were, in that order, 84.9 µM, 102 µM, 49.8 µM and 59.8 µM.
The like results for `CC1CCc2cc(F)cc3c(=O)c(C(=O)O)cn1c23` (stereo unspecified) [Flumequine] were, in that order, below 9.85 µM, below 9.85 µM, below 9.85 µM and below 9.85 µM.
On to `O=C(O[C@@H]1Cc2c(O)cc(O)cc2O[C@@H]1c1cc(O)c(=O)c2c(O)c(O)cc([C@H]3Oc4cc(O)cc(O)c4C[C@H]3OC(=O)c3cc(O)c(O)c(O)c3)c2c1)c1cc(O)c(O)c(O)c1` [THEAFLAVIN DIGALLATE], for which the IC50 was above 150 µM in experiment [1] (fluorescent label: DsRed), above 150 µM in experiment [1] (fluorescent label: GFP), 83.8 µM in experiment [2] (fluorescent label: DsRed) and 57.3 µM in experiment [2] (fluorescent label: GFP).
As to `CCN1CCN(c2cc3c(cc2F)c(=O)c(C(=O)O)cn3C2CC2)CC1` [Enrofloxacin], the IC50 in experiment [1] (fluorescent label: DsRed), in experiment [1] (fluorescent label: GFP), in experiment [2] (fluorescent label: DsRed) and in experiment [2] (fluorescent label: GFP) was below 9.85 µM each time.
Take `CCn1nc(C(=O)O)c(=O)c2cc3c(cc21)OCO3` [CINOBAC]: the IC50 was above 150 µM in experiment [1] (fluorescent label: DsRed), 115 µM in experiment [1] (fluorescent label: GFP), 108 µM in experiment [2] (fluorescent label: DsRed) and 125 µM in experiment [2] (fluorescent label: GFP).
